The values that follow come from ChEMBL document CHEMBL1201862, “PubChem BioAssay data set” (2004).

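1) Cells in 96-well plates. 2) Compound, 48 h, 5 concentrations. 3) Linear interpolation between surrounding doses. 4) Unreached endpoint = highest concentration. GI50: concentration for 50% inhibition of growth.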 The source made the active and inactive calls. Cut-off read from the data, not from the text of the source: active = GI50 up to about 1.1 µM and inactive = higher.

Among the test systems are HOP-92; KM12; HOP-62; SF-295; SNB-19; RXF 393; TK-10; NCI-H23; SNB-75; HCT-15; K562; COLO 205; HT-29; A498; SK-MEL-2; M14.
Holding throughout (test): DTP human tumour cell line panel, 48 h

As to `COCCOCOC(C)(C)[C@H](CCOC(C)=O)O[Si](c1ccccc1)(c1ccccc1)C(C)(C)C`, the GI50 was 5.61 µM (inactive) with HOP-92; 15.4 µM (inactive) in the test on KM12; 23.3 µM (inactive) in the test with HOP-62; 16 µM (inactive) in the test on SF-295; 49 µM (inactive) in the test on SNB-19; 16 µM (inactive) in the test with RXF 393. Further, the GI50 with TK-10 was 22.8 µM (inactive); with NCI-H23, 10.5 µM (inactive); in the test on SNB-75, 38.7 µM (inactive); in the test with HCT-15, 20.3 µM; in the test with K562, 5.75 µM (inactive); in the test on COLO 205 it was 3.44 µM (inactive). For the same molecule, the GI50 with HT-29 was 12.9 µM (inactive); in the test on A498, 20.4 µM (inactive); in the test with SK-MEL-2, 18.6 µM (inactive); in the test with M14 it was 14.1 µM (inactive).
On to `Cc1[nH]c2ccccc2c1C(=O)CC1(O)C(=O)Nc2ccccc21` (stereo not given), for which the GI50 with HOP-92, in the test on KM12, in the test with HOP-62, in the test with SF-295, in the test on SNB-19 and with RXF 393 was > 100 µM (inactive) each time. Besides, the GI50 in the test with TK-10 is > 100 µM (inactive); in the test on NCI-H23, > 100 µM (inactive); in the test on SNB-75, > 100 µM (inactive); in the test with HCT-15, over 100 µM; in the test with K562, > 100 µM (inactive); in the test on COLO 205 it was > 100 µM (inactive). In addition, the GI50 is > 100 µM (inactive) in the test on HT-29, > 100 µM (inactive) with A498, 87.7 µM (inactive) in the test with SK-MEL-2 and > 100 µM (inactive) in the test on M14.
Consider `O=C1NC(Cc2ccc(O)cc2)C(=O)N2CCCC12` (stereo not given), for which the GI50 in the test with HOP-92, in the test with KM12, in the test with HOP-62, with SF-295, in the test on SNB-19 and in the test with RXF 393 was > 100 µM (inactive) in each case. The GI50 in the test with TK-10 is > 100 µM (inactive); in the test on SNB-75, > 100 µM (inactive); with HCT-15, over 100 µM; with K562, > 100 µM (inactive); in the test with COLO 205 it was > 100 µM (inactive); in the test on HT-29 it was > 100 µM (inactive). In addition, the GI50 in the test with A498, with SK-MEL-2 and in the test with M14 was > 100 µM (inactive) in each case.
Consider `CCCC(=O)N[C@H]1C2C3CC4C5CC(C42)C1(C)C53` (stereo not given in full), for which the GI50 in the test on HOP-92, in the test with KM12, with HOP-62, in the test on SF-295, with SNB-19 and in the test with RXF 393 was > 100 µM (inactive) throughout. Also, the GI50 in the test with TK-10 is > 100 µM (inactive); in the test with SNB-75, > 100 µM (inactive); in the test with HCT-15, over 100 µM; in the test with K562 it was > 100 µM (inactive); with COLO 205 it was > 100 µM (inactive); in the test on HT-29, > 100 µM (inactive). Further, the GI50 in the test on A498, in the test with SK-MEL-2 and with M14 was > 100 µM (inactive) in each case.
With `O=C(CC1(O)C(=O)Nc2c(Cl)cc(Cl)cc21)c1ccc(Br)cc1` (stereo not given), the GI50 in the test with HOP-92 is 15.7 µM (inactive); in the test on KM12 it was 15.2 µM (inactive); in the test on HOP-62, 20.2 µM (inactive); in the test with SF-295, 29.5 µM (inactive); in the test with SNB-19, 16.3 µM (inactive); in the test with RXF 393, 16 µM (inactive). Moreover, the GI50 is 17.6 µM (inactive) in the test on TK-10; 14 µM (inactive) in the test on NCI-H23; 17.1 µM (inactive) in the test on SNB-75; 35 µM in the test on HCT-15; 24.5 µM (inactive) with K562; > 40.7 µM (inactive) with COLO 205. In addition, the GI50 in the test on HT-29 was 37.7 µM (inactive); in the test on A498, > 49.2 µM (inactive); in the test with SK-MEL-2, > 41.1 µM (inactive); in the test with M14, 17.6 µM (inactive).
Regarding `CC1(C)CC(=O)C(C(=O)Nc2cccs2)=C(O)C1`, the GI50 was 27.6 µM (inactive) with HOP-92; 38.1 µM (inactive) with KM12; 34.8 µM (inactive) with HOP-62; 28.9 µM (inactive) in the test with SF-295; 31.1 µM (inactive) in the test on SNB-19; 29.9 µM (inactive) with RXF 393. For the same molecule, the GI50 is 64.6 µM (inactive) in the test with TK-10; 30 µM (inactive) in the test on NCI-H23; 25.2 µM (inactive) with SNB-75; 33.9 µM in the test with HCT-15; 28.1 µM (inactive) in the test on K562; 19.6 µM (inactive) with COLO 205. Also, the GI50 is 49.1 µM (inactive) with HT-29, 28.8 µM (inactive) in the test on A498, 35.9 µM (inactive) in the test on SK-MEL-2 and 36.7 µM (inactive) in the test on M14.
With `CCOC(=O)C1CC(=O)C=C2CCCCC21` (stereo not given), the GI50 in the test on HOP-92, with KM12, in the test on HOP-62, with SF-295, in the test on SNB-19 and in the test with RXF 393 was > 100 µM (inactive) in each case. The GI50 in the test with TK-10 was > 100 µM (inactive); in the test on NCI-H23, > 100 µM (inactive); in the test on SNB-75, 99.3 µM (inactive); in the test with HCT-15, over 100 µM; in the test on K562, > 100 µM (inactive); in the test on COLO 205, > 100 µM (inactive). Besides, the GI50 with HT-29, in the test with A498, in the test with SK-MEL-2 and in the test on M14 was > 100 µM (inactive) each time.
With `C[C@]12CCC(=O)C=C1CC[C@@H]1[C@@H]2C(=O)C[C@@]2(C)[C@H]1CC[C@]2(O)C(=O)CO` [CORTISONE], the GI50 in the test on HOP-92, in the test on KM12, with SF-295, with SNB-19, with RXF 393 and in the test on TK-10 was > 100 µM (inactive) in each case. For the same molecule, the GI50 with NCI-H23 was > 100 µM (inactive); with SNB-75, > 100 µM (inactive); in the test on HCT-15, over 100 µM; with K562, > 100 µM (inactive); in the test on COLO 205, > 100 µM (inactive); in the test with HT-29, > 100 µM (inactive). Further, the GI50 in the test with A498, with SK-MEL-2 and with M14 was > 100 µM (inactive) in each case.
In the case of `COC(=O)C1=NC(=S)NC(c2ccccc2)C1c1nc2ccccc2s1` (stereo not given), the GI50 in the test with HOP-92, with KM12, in the test with HOP-62, in the test on SF-295, in the test with SNB-19 and in the test with RXF 393 was > 100 µM (inactive) throughout. Moreover, the GI50 in the test on TK-10 is > 100 µM (inactive); in the test on NCI-H23, > 100 µM (inactive); with SNB-75, 55.3 µM (inactive); in the test with HCT-15 it was over 100 µM; in the test on COLO 205, > 100 µM (inactive); with HT-29, > 100 µM (inactive). In addition, the GI50 with A498, in the test on SK-MEL-2 and in the test with M14 was > 100 µM (inactive) each time.
